Common to all, as to type: cell-based
Test [1] deals with T1, Nuclear factor erythroid 2-related factor 2 (Mus musculus) (UniProt Q60795).
T1 sequence (whole entry): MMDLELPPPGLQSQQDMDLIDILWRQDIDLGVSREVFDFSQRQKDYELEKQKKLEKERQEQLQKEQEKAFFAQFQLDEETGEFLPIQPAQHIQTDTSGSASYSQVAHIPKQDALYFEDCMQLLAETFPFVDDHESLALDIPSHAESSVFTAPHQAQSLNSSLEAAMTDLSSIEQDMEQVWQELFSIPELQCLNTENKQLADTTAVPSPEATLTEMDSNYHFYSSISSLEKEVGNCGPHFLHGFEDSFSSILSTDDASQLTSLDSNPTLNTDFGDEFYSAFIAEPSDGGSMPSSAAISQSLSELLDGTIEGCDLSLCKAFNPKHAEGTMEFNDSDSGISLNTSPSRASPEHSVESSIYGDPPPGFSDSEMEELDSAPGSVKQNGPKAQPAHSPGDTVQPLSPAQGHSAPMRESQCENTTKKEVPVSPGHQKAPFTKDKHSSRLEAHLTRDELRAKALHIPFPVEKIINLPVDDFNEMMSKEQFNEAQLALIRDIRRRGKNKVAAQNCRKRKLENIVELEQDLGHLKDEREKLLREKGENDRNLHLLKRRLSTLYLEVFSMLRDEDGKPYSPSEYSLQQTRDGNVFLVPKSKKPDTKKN
Description: Activation of Nrf2 in mouse MIN6 cells assessed as decrease in cytoplasmic Nrf2 fraction by Western blot analysis.

The target of test [2] is T2, Keap1/Nrf2 (Homo sapiens) (UniProt Q16236+Q14145). Briefly: Inhibition of Nrf2-Keap1 (unknown origin) interaction co-expressed in HEK293T cells using D-luciferin as substrate assessed as decrease in luciferase signal intensity at 0.5 to 10 uM by bioluminescence-based IVIS imaging analysis. The note with it: HEK-293T, TDE = time-dependent effect.
T2 sequence (Q14145 whole entry, looked up): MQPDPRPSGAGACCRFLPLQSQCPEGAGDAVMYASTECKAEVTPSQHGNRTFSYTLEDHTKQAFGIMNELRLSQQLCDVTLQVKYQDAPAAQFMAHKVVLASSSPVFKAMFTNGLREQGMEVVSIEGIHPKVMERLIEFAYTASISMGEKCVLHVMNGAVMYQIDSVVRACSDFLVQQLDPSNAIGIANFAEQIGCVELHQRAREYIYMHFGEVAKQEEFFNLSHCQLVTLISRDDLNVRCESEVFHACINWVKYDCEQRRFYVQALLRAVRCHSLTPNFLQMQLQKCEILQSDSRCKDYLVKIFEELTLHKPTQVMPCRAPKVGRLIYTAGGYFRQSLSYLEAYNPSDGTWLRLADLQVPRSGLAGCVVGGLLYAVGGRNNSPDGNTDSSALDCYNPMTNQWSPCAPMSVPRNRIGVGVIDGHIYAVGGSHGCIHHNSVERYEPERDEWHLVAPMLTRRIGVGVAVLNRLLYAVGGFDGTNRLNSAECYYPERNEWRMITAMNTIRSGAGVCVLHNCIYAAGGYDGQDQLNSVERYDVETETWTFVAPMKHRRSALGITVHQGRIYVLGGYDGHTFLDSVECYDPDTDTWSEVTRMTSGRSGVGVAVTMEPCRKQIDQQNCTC
T2 sequence (Q16236 whole entry, looked up): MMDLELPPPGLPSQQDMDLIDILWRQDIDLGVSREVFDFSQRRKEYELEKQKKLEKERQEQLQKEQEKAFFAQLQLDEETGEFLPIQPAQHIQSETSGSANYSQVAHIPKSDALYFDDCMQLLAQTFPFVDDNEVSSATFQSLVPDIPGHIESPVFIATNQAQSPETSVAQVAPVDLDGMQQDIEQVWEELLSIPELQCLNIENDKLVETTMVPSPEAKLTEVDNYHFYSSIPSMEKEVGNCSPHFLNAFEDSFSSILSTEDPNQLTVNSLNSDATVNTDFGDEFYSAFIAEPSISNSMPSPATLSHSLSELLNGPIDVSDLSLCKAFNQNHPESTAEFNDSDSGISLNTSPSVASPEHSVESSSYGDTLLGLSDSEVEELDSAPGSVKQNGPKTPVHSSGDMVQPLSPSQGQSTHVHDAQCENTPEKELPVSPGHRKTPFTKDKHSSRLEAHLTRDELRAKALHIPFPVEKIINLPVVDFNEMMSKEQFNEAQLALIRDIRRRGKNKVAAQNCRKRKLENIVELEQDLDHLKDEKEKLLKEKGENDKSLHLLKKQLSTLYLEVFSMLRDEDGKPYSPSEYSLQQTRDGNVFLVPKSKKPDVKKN
For test [3], the target named is T1, Nuclear factor erythroid 2-related factor 2 (Mus musculus). Description: Activation of Nrf2 in mouse MIN6 cells assessed as upregulation of GST1-ARE-luciferase incubated for 8 hrs by luminometric assay relative to control.
The target in test [4] is T2, Keap1/Nrf2 (Homo sapiens). Briefly: Inhibition of Nrf2-Keap1 (unknown origin) interaction co-expressed in HEK293T cells using D-luciferin as substrate assessed as decrease in luciferase signal intensity incubated for 24 hrs by bioluminescence-based IVIS imaging analysis. As to conditions: HEK-293T.
In test [5] the target is T1, Nuclear factor erythroid 2-related factor 2 (Mus musculus). Description: Activation of Nrf2 in mouse MIN6 cells assessed as upregulation of human NQO1-ARE-luciferase incubated for 8 hrs by luminometric assay relative to control.
Test [6] has the same target. Briefly: Activation of Nrf2 in mouse MIN6 cells assessed as increase in nuclear Nrf2 translocation by Western blot analysis. Background: In western blotting, separated proteins are transferred to a membrane and probed.

`COc1cc(/C=C/c2ccc(O)cc2)cc(OC)c1`: the Activity entry in test [1], in test [3], in test [5] and in test [6] was “Dose-dependent effect” each time. For the same molecule, the inhibition result in test [2] was “tde”; in test [4] it was “Dose-dependent effect”. Moreover, the fold change (FC) in test [3] and in test [5] was 2 in each case.

(Values after ChEMBL document CHEMBL3817774, “Pterostilbene-mediated Nrf2 activation: Mechanistic insights on Keap1:Nrf2 interface” (Bioorg Med Chem, 2016).)
